# Measured values taken from patent US20140162290A1, “PROBE FOR DETECTING DEAD CELL” (RIKEN, priority 2012, published 2014).
# Experiments:
# [1] = target: T1, human Tim4 wild-type IgG Fc fusion protein hTim4-Fc (181 mucin domain residues), SEQ ID NO: 49 (Homo sapiens, UniProt Q96H15, D300G/G301W/M299D/Q298T/V240A); assay: ELISA, binding capacity of hTim4-Fc to PS; details: n = 2
# T1 construct: made in house; host or cells: Freestyle 293F cells
# Procedure: Using a vector encoding the hTim4 sequence (pCMV6-XL5 Homo sapiens T-cell immunoglobulin and mucin domain containing 4, transcript variant 1 as transfection-ready DNA, OriGene Technologies) as a template, and a primer containing an EcoRV restriction site at 5′-end (SEQ ID NO:22) and a primer containing a BglII restriction site at 3′-end (SEQ ID NO:23), PCR was performed. The obtained PCR product and pFUSE-hIgG1e3-Fc2 (InvivoGen) encoding the human IgG-Fc region were each digested with EcoRV and BglII, and the resulting digestion products were ligated to each other. E. coli (JM109, Takara Bio Inc.) was transformed with the resulting ligation product, and colonies were obtained. From the obtained colonies, plasmids were extracted, and the DNA sequences of the plasmids were analyzed. A colony having the hTim4 sequence inserted therein was subjected to large-scale culture, to obtain a vector. […]
# (§1) The obtained vector of 37.5 μg was transfected into 30 mL of 1×10^6 cells/mL Freestyle 293F cells (Life technologies) using Freestyle MAX Reagent (Life technologies), and the cells were cultured with shaking at 37° C. under 8% CO2 for 4 days. […] The purified protein was subjected to SDS-PAGE, and the molecular weight under non-reducing conditions was calculated (Table 6). […]
# [2] = target: T2, human Tim4 IgG Fc fusion protein, modified type hTim4-240-Fc (111 mucin domain residues), SEQ ID NO: 51 (Homo sapiens, UniProt Q96H15, V240A); assay: ELISA, binding capacity of hTim4-240-Fc to PS; details: n = 2
# T2 construct: made in house; host or cells: Freestyle 293F cells
# T2 sequence (Q96H15 with tags, fused parts or gaps V240A): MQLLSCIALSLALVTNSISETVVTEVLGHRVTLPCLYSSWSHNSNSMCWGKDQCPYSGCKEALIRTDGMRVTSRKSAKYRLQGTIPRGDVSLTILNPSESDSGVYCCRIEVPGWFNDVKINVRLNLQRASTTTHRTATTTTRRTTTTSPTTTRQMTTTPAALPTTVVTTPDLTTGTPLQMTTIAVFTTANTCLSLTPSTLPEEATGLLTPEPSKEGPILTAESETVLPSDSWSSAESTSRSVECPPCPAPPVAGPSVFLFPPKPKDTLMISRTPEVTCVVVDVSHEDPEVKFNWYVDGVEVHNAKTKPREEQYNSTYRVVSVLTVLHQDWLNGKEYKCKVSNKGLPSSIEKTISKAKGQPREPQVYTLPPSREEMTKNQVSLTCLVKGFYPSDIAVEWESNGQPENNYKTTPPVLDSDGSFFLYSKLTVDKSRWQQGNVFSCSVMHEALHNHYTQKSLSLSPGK
# Text: (§2) Using the primers shown in Table 4 and PrimeSTAR Mutagenesis Basal Kit (Takara Bio Inc.), vectors encoding fusion proteins having mucin domains with various lengths, in which the C-terminus and/or the N-terminus of the wild-type mucin domain was/were deleted. More specifically, phTim4-Fc was used as a template to prepare phTim4-240-Fc and phTim4-187-Fc; the obtained phTim4-187-Fc was used as a template to prepare phTim4-184-Fc, phTim4-181-Fc, phTim4-178-Fc, phTim4-175-Fc, phTim4-162-Fc, phTim4-149-Fc, phTim4-135-Fc, phTim4-130-Fc and phTim4-Δ131-187-Fc; the obtained phTim4-240-Fc was used as a template to prepare phTim4-Δ131-240-Fc; and the obtained phTim4-Δ131-187-Fc was used as a template to prepare phTim4-Δ131-187Δ241-310-Fc. […]
# as §1
# (§3) Into a 96-well plate, 100 μL of PS (0.5 mg/mL) or a solvent (methanol) was placed, and dried. […] An HRP-conjugated anti-human IgG-Fc antibody was used as a secondary antibody, and the absorbance due to coloring with TMB was measured using a microplate reader. […]
# [3] = target: T3, human Tim4 IgG Fc fusion protein, modified type hTim4-Δ131-240-Fc (55 mucin domain residues), SEQ ID NO: 55 (Homo sapiens, UniProt Q96H15, DEL135-260); assay: ELISA, binding capacity of hTim4-Δ131-240-Fc to PS; details: n = 2
# T3 construct: made in house; host or cells: Freestyle 293F cells
# T3 sequence (Q96H15 with tags, fused parts or gaps DEL135-260 limits assumed): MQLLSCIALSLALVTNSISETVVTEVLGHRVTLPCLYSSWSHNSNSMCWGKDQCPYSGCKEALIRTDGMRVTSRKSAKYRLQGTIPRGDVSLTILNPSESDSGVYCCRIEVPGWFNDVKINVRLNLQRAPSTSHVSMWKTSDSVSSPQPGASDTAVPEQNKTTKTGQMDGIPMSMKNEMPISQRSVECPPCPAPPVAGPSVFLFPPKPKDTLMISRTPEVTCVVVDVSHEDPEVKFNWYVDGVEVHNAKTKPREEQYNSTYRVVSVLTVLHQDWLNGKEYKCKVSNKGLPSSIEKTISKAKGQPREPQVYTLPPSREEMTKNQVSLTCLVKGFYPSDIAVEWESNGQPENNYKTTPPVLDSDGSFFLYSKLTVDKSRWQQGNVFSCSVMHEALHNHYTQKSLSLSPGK
# Text: as §2, §1, §3
# [4] = target: T4, human Tim4 IgG Fc fusion protein, modified type hTim4-Δ131-187Δ241-310-Fc (58 mucin domain residues), SEQ ID NO: 57 (Homo sapiens, UniProt Q96H15, DEL135-187/V240A); assay: ELISA, binding capacity of hTim4-Δ131-187Δ241-310-Fc to PS; details: n = 2
# T4 construct: made in house; host or cells: Freestyle 293F cells
# T4 sequence (Q96H15 with tags, fused parts or gaps DEL135-187/V240A limits assumed): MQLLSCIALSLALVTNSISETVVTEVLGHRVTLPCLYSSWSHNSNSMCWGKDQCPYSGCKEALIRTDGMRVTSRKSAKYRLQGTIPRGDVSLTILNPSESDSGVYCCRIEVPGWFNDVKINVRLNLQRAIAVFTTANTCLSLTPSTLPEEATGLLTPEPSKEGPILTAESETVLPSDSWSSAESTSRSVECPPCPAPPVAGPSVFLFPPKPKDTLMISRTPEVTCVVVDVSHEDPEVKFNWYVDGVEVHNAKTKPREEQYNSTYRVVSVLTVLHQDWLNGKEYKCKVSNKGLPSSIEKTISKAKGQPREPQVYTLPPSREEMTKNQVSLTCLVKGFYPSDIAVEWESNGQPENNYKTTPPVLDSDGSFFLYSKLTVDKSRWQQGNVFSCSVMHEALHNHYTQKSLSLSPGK
# Text: as §2, §1, §3
# [5] = target: T5, human Tim4 IgG Fc fusion protein, modified type hTim4-187-Fc (58 mucin domain residues), SEQ ID NO: 59 (Homo sapiens, UniProt Q96H15); assay: ELISA, binding capacity of hTim4-187-Fc to PS; details: n = 2
# T5 construct: made in house; host or cells: Freestyle 293F cells
# T5 sequence (Q96H15 with tags, fused parts or gaps): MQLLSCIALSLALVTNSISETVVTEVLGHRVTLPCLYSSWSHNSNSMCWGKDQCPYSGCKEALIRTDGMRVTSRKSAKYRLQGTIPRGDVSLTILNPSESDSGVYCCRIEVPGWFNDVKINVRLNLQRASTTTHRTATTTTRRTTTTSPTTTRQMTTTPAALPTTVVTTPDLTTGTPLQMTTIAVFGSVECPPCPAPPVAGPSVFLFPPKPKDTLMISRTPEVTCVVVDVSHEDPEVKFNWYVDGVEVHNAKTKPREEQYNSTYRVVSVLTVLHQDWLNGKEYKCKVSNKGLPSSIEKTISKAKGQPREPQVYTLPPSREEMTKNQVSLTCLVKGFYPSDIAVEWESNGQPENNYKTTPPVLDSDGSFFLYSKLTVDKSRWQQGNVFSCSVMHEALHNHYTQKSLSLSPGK
# Text: as §2, §1, §3
# [6] = target: T6, human Tim4 IgG Fc fusion protein, modified type hTim4-184-Fc (55 mucin domain residues), SEQ ID NO: 61 (Homo sapiens, UniProt Q96H15); assay: ELISA, binding capacity of hTim4-184-Fc to PS; details: n = 2
# T6 construct: made in house; host or cells: Freestyle 293F cells
# T6 sequence (Q96H15 with tags, fused parts or gaps): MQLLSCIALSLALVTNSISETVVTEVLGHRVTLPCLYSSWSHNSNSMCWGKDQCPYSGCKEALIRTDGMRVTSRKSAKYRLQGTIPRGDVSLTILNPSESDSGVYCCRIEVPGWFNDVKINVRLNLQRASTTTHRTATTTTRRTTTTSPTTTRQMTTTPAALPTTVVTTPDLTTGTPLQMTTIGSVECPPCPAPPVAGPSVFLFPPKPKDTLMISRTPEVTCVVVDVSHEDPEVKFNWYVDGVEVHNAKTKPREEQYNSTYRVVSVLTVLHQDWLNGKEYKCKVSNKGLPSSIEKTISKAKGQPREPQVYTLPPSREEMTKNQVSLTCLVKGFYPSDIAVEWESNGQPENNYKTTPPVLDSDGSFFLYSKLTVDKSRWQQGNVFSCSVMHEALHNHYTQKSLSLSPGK
# Text: as §2, §1, §3
# [7] = target: T7, human Tim4 IgG Fc fusion protein, modified type hTim4-181-Fc (52 mucin domain residues), SEQ ID NO: 63 (Homo sapiens, UniProt Q96H15); assay: ELISA, binding capacity of hTim4-181-Fc to PS; details: n = 2
# T7 construct: made in house; host or cells: Freestyle 293F cells
# T7 sequence (Q96H15 with tags, fused parts or gaps): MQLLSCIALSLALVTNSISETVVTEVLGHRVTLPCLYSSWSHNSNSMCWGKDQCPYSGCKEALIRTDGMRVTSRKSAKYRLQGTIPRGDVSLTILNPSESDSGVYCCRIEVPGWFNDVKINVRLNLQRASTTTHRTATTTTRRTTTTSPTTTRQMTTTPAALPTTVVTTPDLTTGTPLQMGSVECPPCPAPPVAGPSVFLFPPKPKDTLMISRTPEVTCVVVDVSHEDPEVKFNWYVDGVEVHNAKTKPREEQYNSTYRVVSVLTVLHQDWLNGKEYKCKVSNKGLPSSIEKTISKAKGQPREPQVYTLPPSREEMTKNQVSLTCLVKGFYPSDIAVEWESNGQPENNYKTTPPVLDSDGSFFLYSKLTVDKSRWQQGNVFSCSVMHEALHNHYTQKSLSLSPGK
# Text: as §2, §1, §3
# [8] = target: T8, human Tim4 IgG Fc fusion protein, modified type hTim4-178-Fc (49 mucin domain residues), SEQ ID NO: 65 (Homo sapiens, UniProt Q96H15); assay: ELISA, binding capacity of hTim4-178-Fc to PS; details: n = 2
# T8 construct: made in house; host or cells: Freestyle 293F cells
# T8 sequence (Q96H15 with tags, fused parts or gaps): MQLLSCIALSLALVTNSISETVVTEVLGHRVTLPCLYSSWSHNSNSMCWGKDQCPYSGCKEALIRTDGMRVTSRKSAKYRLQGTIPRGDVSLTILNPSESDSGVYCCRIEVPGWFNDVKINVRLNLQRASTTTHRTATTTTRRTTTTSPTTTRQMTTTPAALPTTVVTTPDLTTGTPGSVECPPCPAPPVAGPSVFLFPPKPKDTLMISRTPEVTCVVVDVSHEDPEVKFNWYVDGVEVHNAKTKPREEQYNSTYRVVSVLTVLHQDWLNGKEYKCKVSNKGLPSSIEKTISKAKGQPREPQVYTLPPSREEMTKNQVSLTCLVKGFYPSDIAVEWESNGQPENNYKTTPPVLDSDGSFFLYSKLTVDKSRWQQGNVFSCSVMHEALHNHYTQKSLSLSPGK
# Text: as §2, §1, §3
# [9] = target: T9, human Tim4 IgG Fc fusion protein, modified type hTim4-175-Fc (46 mucin domain residues), SEQ ID NO: 67 (Homo sapiens, UniProt Q96H15); assay: ELISA, binding capacity of hTim4-175-Fc to PS; details: n = 2
# T9 construct: made in house; host or cells: Freestyle 293F cells
# T9 sequence (Q96H15 with tags, fused parts or gaps): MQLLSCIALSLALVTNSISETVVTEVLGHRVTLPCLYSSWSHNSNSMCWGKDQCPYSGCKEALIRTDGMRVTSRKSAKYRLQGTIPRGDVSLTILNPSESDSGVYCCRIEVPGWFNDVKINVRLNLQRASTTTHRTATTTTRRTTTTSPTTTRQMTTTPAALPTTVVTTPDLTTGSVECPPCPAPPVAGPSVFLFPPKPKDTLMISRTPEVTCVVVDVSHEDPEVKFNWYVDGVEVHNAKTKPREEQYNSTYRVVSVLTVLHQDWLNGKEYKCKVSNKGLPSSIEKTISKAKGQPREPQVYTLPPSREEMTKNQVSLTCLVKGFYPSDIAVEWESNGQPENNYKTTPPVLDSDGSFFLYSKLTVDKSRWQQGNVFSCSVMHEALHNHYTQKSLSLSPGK
# Text: as §2, §1, §3
# [10] = target: T10, human Tim4 IgG Fc fusion protein, modified type hTim4-240-Fc, SEQ ID NO: 51 (Homo sapiens, UniProt Q96H15, V240A); assay: Dot blotting, binding of hTim4-240-Fc to PS; details: 0.15 μg of PS spotted; fusion protein 0.5 μg/mL, 4° C. overnight
# T10 construct: replaced N-terminal leader; Freestyle 293F, purified
# T10 sequence (Q96H15 with tags, fused parts or gaps V240A): as the sequence (Q96H15 with tags, fused parts or gaps V240A) above
# Procedure: (§4) Dot blotting was carried out by the following procedure to evaluate the binding capacity of each fusion protein (hTim4-Fc) prepared as described above to PS. On a PVDF membrane (GE Healthcare) with a size of 10 mm×10 mm, 0.15 μg of PS was spotted, and the resulting membrane was incubated in 500 μL of a blocking buffer (5% skim milk—PBS-T) in a 24-well plate at room temperature for 1 hour, to perform blocking. To the blocking buffer in the well, each fusion protein was added at a final concentration of 0.5 μg/mL, and incubation was carried out at 4° C. overnight. A control was provided by use of only the blocking buffer. Thereafter, the PVDF membrane was washed 5 times with 2 mL of PBS-T, and incubated at room temperature for 2 hours in an HRP-conjugated anti-human IgG-Fc antibody (Bethyl) solution which was 10000-fold diluted with 500 μL of the blocking buffer. Subsequently, the membrane was washed 5 times with 2 mL of PBS-T, followed by chemiluminescence using ECL prime (GE healthcare) and detection using LAS 3000 (Fujifilm).
# [11] = target: T11, human Tim4 IgG Fc fusion protein, modified type hTim4-187-Fc, SEQ ID NO: 59 (Homo sapiens, UniProt Q96H15); assay: Dot blotting, binding of hTim4-187-Fc to PS; details: 0.15 μg of PS spotted; fusion protein 0.5 μg/mL, 4° C. overnight
# T11 construct: replaced N-terminal leader; Freestyle 293F, purified
# Procedure: as §4
# [12] = target: T12, human Tim4 IgG Fc fusion protein, modified type hTim4-184-Fc, SEQ ID NO: 61 (Homo sapiens, UniProt Q96H15); assay: Dot blotting, binding of hTim4-184-Fc to PS; details: 0.15 μg of PS spotted; fusion protein 0.5 μg/mL, 4° C. overnight
# T12 construct: replaced N-terminal leader; Freestyle 293F, purified
# Procedure: as §4
# [13] = target: T13, human Tim4 IgG Fc fusion protein, modified type hTim4-181-Fc, SEQ ID NO: 63 (Homo sapiens, UniProt Q96H15); assay: Dot blotting, binding of hTim4-181-Fc to PS; details: 0.15 μg of PS spotted; fusion protein 0.5 μg/mL, 4° C. overnight
# T13 construct: replaced N-terminal leader; Freestyle 293F, purified
# Procedure: as §4
# [14] = target: T14, human Tim4 IgG Fc fusion protein, modified type hTim4-178-Fc, SEQ ID NO: 65 (Homo sapiens, UniProt Q96H15); assay: Dot blotting, binding of hTim4-178-Fc to PS; details: 0.15 μg of PS spotted; fusion protein 0.5 μg/mL, 4° C. overnight
# T14 construct: replaced N-terminal leader; Freestyle 293F, purified
# Procedure: as §4
# [15] = target: T15, human Tim4 IgG Fc fusion protein, modified type hTim4-175-Fc, SEQ ID NO: 67 (Homo sapiens, UniProt Q96H15); assay: Dot blotting, binding of hTim4-175-Fc to PS; details: 0.15 μg of PS spotted; fusion protein 0.5 μg/mL, 4° C. overnight
# T15 construct: replaced N-terminal leader; Freestyle 293F, purified
# Procedure: as §4
# [16] = target: T11, human Tim4 IgG Fc fusion protein, modified type hTim4-187-Fc, SEQ ID NO: 59; assay: Dot blotting, binding specificity of hTim4-187-Fc to various phospholipids; details: PE, PC, PI and PS spotted, 1 μL of 100 pmol/μL each; fusion protein 0.5 μg/mL, room temperature 2 hours
# Procedure: Dot blotting was carried out by the following procedure to evaluate the binding capacity of the fusion protein of the present invention to various phospholipids.
# On a PVDF membrane (GE Healthcare), 1 μL each of 100 pmol/μL 3-sn-phosphatidylethanolamine (PE), L-α-phosphatidylcholine (PC), L-α-phosphatidylinositol (PI), and 3-sn-phosphatidyl-L-serine (Sigma Aldrich) were spotted, and the resulting membrane was incubated in 2 mL of a blocking buffer (5% skim milk—PBS-T) at room temperature for 1 hour, to perform blocking. To the blocking buffer in each well, hTim4-187-Fc was added at a final concentration of 0.5 μg/mL, and incubation was carried out at room temperature for 2 hours. Thereafter, the PVDF membrane was washed 5 times with 5 mL of PBS-T, and incubated at room temperature for 2 hours in an HRP-conjugated anti-human IgG-Fc antibody (Bethyl) solution which was 10000-fold diluted with 2 mL of the blocking buffer. Subsequently, the membrane was washed 5 times with 5 mL of PBS-T, followed by chemiluminescence using ECL prime (GE healthcare) and detection using LAS 3000 (Fujifilm).
# [17] = system: A431 tumor; assay: Diagnosis of apoptosis in target tissue (TUNEL and activated caspase 3 staining of tumor sections); type: in vivo, mouse (Balb/c-Ajcl-nu/nu); details: MMC 5 mg/6.25 mL/kg via tail vein, one, 3 and 5 days before the RI-labeled product
# Text: Male Balb/c-Ajcl-nu/nu mice of 5 to 6 weeks old (CLEA Japan, Inc.) were provided, and divided into two groups (the MMC administration group and the vehicle group; 3 individuals per group). A431 cells were inoculated into the left femoral region of each mouse, 2 to 3 weeks before the PET experiment for the MMC administration group, or 10 days to 2 weeks before the PET experiment for the vehicle group. Individuals of which the tumor size became […] on the day before the administration of the RI-labeled product were subjected to the PET experiment. One day, 3 days, and 5 days before the administration of the RI-labeled product, MMC (mitomycin C) was administered via the tail vein at an amount of 5 mg/6.25 mL/kg for the MMC administration group, and physiological saline was administered at amount of 6.25 mL/kg for the vehicle group.
# After the completion of the PET experiment, the tumor was isolated from each mouse, and frozen sections were prepared. The prepared frozen sections were fixed with cold methanol, and stored at −20° C. until use. The sections were used for the experiment within 3 to 5 days after the dissection.
# The frozen sections were subjected to blocking using Protein Block, Serum-Free (Dako), and then subjected to TUNEL staining using DeadEnd Fluorometric TUNEL System (Promega). […]
# [18] = 10-fold dilution series of the fusion protein on PS-coated plate, read-out: EC50 ± SE (50% effective concentration)
# T1 sequence (Q96H15 with tags, fused parts or gaps V240A/Q298T/M299D/D300G/G301W): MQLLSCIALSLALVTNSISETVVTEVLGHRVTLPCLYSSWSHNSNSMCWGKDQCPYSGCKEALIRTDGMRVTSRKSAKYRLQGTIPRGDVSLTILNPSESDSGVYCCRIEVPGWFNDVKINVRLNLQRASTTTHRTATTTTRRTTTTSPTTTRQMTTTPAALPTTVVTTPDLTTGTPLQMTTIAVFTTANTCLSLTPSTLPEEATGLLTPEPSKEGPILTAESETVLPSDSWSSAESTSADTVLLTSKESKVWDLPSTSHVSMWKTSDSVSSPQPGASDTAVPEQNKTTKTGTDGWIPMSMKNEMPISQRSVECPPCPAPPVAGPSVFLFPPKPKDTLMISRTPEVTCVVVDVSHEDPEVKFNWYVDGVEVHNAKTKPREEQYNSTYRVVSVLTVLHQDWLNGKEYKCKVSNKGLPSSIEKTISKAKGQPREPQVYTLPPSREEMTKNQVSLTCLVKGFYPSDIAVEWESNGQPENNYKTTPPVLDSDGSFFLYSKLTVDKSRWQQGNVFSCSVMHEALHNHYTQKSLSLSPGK
compound,measurement,setting,value
3-sn-phosphatidyl-L-serine [PS],EC50,[1]; [18],0.2 nM
same,Bmax ± SE (maximum binding amount),[1]; PS-coated plate,0.00 ± 0.00 Abs 450 nm
same,EC50,[2]; [18],7.1 ± 14.9 nM
same,Bmax ± SE (maximum binding amount),[2]; PS-coated plate,0.01 ± 0.01 Abs 450 nm
same,EC50,[3]; [18],148 ± 85.8 nM
same,Bmax ± SE (maximum binding amount),[3]; PS-coated plate,0.07 ± 0.02 Abs 450 nm
same,EC50,[4]; [18],132 ± 305 nM
same,Bmax ± SE (maximum binding amount),[4]; PS-coated plate,0.02 ± 0.03 Abs 450 nm
same,EC50,[5]; [18],62.8 ± 20.2 nM
same,Bmax ± SE (maximum binding amount),[5]; PS-coated plate,1.02 ± 0.14 Abs 450 nm
same,EC50,[6]; [18],100 ± 45.2 nM
same,Bmax ± SE (maximum binding amount),[6]; PS-coated plate,0.84 ± 0.17 Abs 450 nm
same,EC50,[7]; [18],47.5 ± 6.2 nM
same,Bmax ± SE (maximum binding amount),[7]; PS-coated plate,0.74 ± 0.04 Abs 450 nm
same,EC50,[8]; [18],67 ± 54.8 nM
same,Bmax ± SE (maximum binding amount),[8]; PS-coated plate,0.63 ± 0.22 Abs 450 nm
same,EC50,[9]; [18],76.2 ± 19.5 nM
same,Bmax ± SE (maximum binding amount),[9]; PS-coated plate,0.77 ± 0.08 Abs 450 nm
same,binding to PS,[10],binding to PS was confirmed
same,binding to PS,[11],binding to PS was confirmed
same,binding to PS,[12],binding to PS was confirmed
same,binding to PS,[13],binding to PS was confirmed
same,binding to PS,[14],binding to PS was confirmed
same,binding to PS,[15],binding to PS was confirmed
same,binding specificity to PS among phospholipids,[16],binds to only PS
"CO[C@@]12[C@H](COC(N)=O)C3=C(C(=O)C(C)=C(N)C3=O)N1C[C@@H]1N[C@@H]12 [MMC, mitomycin C]",occurrence of apoptosis in the tumor,[17],occurrence of apoptosis in the tumor of the MMC-administered individuals was confirmed
